{
  "source": "patent US12018303B2",
  "about": "“Method for preparing amines from carbonyl compounds by transaminase reaction under salt precipitation” (ENZYMICALS AG, priority 2017, dated 2024)",
  "key": {"[1]": {"settings": "donor amine salt"}, "[2]": {"tested_on": "amine transaminases AfATA, GzATA, NfATA, AoATA, AtATA, MvATA, SpATA", "format": "biochemical"}, "[3]": {"assay": "Stability of salt solutions observed in the screening", "format": "physicochemical", "settings": "certain salt solutions; strong discoloration", "text": "The results of table 3 show clearly that certain acids allow significant differences in solubility between investigated salts. In this screening especially differences between product amines and the commonly used donor amines isopropylamine/alanine were targeted. Based on this consideration the following acids appear most applicable: 34CA, 34NA, 43CNA and 3DPPA. In addition, 2DPPA was identified as suitable acid. Acids with less strong differences are PCPA, 24CNA, 25CNA, 35DNOT, 3NA and 435CNBA, which might be useful for other product amines."}},
  "note": "Read-outs that look alike come from different tables or passages of the source.",
  "data": [
    {"smiles": "CC(C)N.O=C(O)c1ccc(Cl)c([N+](=O)[O-])c1", "note": "[Compound 5, isopropylamine salt of 4-chloro-3-nitrobenzoic acid (43CNA)]", "values": [
      {"measurement": "solubility", "setting": "[1]", "result": 993}
    ]},
    {"smiles": "O=C(O)CC(c1ccccc1)c1ccccc1", "note": "[Compound 3DPPA, 3,3-diphenylpropionic acid]", "values": [
      {"measurement": "inhibition of amine transaminases", "setting": "[2]", "result": "does not significantly inhibit"}
    ]},
    {"smiles": "O=C(O)c1ccc(Cl)c([N+](=O)[O-])c1", "note": "[Compound 43CNA, 4-chloro-3-nitro-benzoic acid]", "values": [
      {"measurement": "inhibition of amine transaminases", "setting": "[2]; pH 7.5", "result": "strongly inhibited"}
    ]},
    {"smiles": "O=C(O)C(c1ccccc1)c1ccccc1", "note": "[DPAA, diphenylacetic acid]", "values": [
      {"measurement": "inhibition of amine transaminases", "setting": "[2]; pH 7.5", "result": "strongly inhibited"}
    ]},
    {"smiles": "O=C(O)C1(c2ccccc2)CCCC1", "note": "[PCPA, 1-Phenylcyclo-pentane-carboxylic acid]", "values": [
      {"measurement": "stability of salt solutions", "setting": "[3]", "result": "unknown decomposition reaction"}
    ]}
  ]
}
